Where two headings read alike, the source gives them in different places.
Test: Bioavailability: blood plasma nicotine levels after inhalation of air from the glass columns
Assay type: in vivo
Conditions: human, inhaled or intranasal, test persons abstained from nicotine for 12 h, read-out: Plasma nicotine, peak value
Procedure: Untreated tobacco was used as reference.
The bioavailability of nicotine, i.e. the blood plasma nicotine levels, after inhalation of air from the glass columns prepared as described above at 65° C. and 75° C., respectively was also investigated. The test persons had abstained from smoking or having nicotine in any other way for 12 h before the test.

Compound CN1CCCC1c1cccnc1 (centres unmarked) [nicotine] has a Cmax (column at 65 °C) of 5 ng/mL and a Cmax (column at 75 °C) of 10 to 15 ng/mL.

Source: patent US4907606A, “Tobacco compositions, method and device for releasing essentially pure nicotine” (AB Leo, priority 1984, dated 1990)
